Results: PubChem BioAssay (NCI)
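Growth conditions: 96-well plates. Treatment: test compound, 48 hours, 5 concentrations. Analysis: linear interpolation between bracketing concentrations; unreached endpoints set to highest concentration. GI50: concentration for 50% inhibition of growth. The concentration for full growth arrest is given as TGI.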

What was measured:
Test in all cases: NCI-60 cell line screen, 48 h
CCRF-CEM leukemia = tested on: CCRF-CEM leukemia
786-0 renal = tested on: 786-0 renal
OVCAR-5 ovarian = tested on: OVCAR-5 ovarian
CAKI-1 renal = tested on: CAKI-1 renal
NCI-H460 lung = tested on: NCI-H460 lung
OVCAR-3 ovarian = tested on: OVCAR-3 ovarian
SK-OV-3 ovarian = tested on: SK-OV-3 ovarian
RPMI-8226 leukemia = tested on: RPMI-8226 leukemia
NCI-H522 lung = tested on: NCI-H522 lung
SR leukemia = tested on: SR leukemia

Compound | TGI (CCRF-CEM leukemia) | TGI (786-0 renal) | TGI (OVCAR-5 ovarian) | TGI (CAKI-1 renal) | TGI (NCI-H460 lung) | TGI (OVCAR-3 ovarian) | TGI (SK-OV-3 ovarian) | TGI (RPMI-8226 leukemia) | TGI (NCI-H522 lung) | GI50 (CCRF-CEM leukemia) | GI50 (786-0 renal) | GI50 (OVCAR-5 ovarian) | GI50 (NCI-H460 lung) | GI50 (SR leukemia) | TGI (SR leukemia) | GI50 (OVCAR-3 ovarian) | GI50 (RPMI-8226 leukemia) | GI50 (SK-OV-3 ovarian) | GI50 (CAKI-1 renal) | GI50 (NCI-H522 lung)
Cc1ccc(NC(=O)CCC(=O)C2CC(=O)CCC2=O)cc1C (centres undefined) | > 100 µM | > 100 µM | > 100 µM | > 100 µM | > 100 µM | > 100 µM | > 100 µM |  |  |  |  |  |  |  |  |  |  |  |  | 
COc1ccc(Br)c(CCCCC(=O)O)c1 | > 100 µM | > 100 µM |  | > 100 µM | > 100 µM | > 100 µM | > 100 µM | > 100 µM |  |  |  |  |  |  |  |  |  |  |  | 
COC(=O)C1(c2ccc(OC)cc2)NC(c2ccccc2)C2C(=O)N(c3ccc(OC)cc3)C(=O)C21 (centres undefined) | > 100 µM | > 100 µM | > 100 µM | > 100 µM | > 100 µM |  | > 100 µM | > 100 µM | > 100 µM |  |  |  |  |  |  |  |  |  |  | 
CCOC(=O)C12CN(C34CC5CC(CC(C5)C3)C4)CC(C(=O)OCC)(C1=O)C(c1ccccc1)OC2c1ccccc1 (centres undefined) | > 100 µM | > 100 µM | > 100 µM |  | > 100 µM | > 100 µM | > 100 µM | > 100 µM |  |  |  |  |  |  |  |  |  |  |  | 
Oc1ccc(-c2nc(-c3ccc(F)cc3)c(-c3ccncc3)[nH]2)cc1 | 59.8 µM | > 100 µM | > 100 µM |  | 59.7 µM | 86.9 µM | 80.3 µM | 38.2 µM |  | 9.62 µM | 12.5 µM | 59.3 µM | 18.8 µM | 6.98 µM | 52.8 µM | 15 µM | 11.7 µM | 5.21 µM |  | 
O=C1NCC2=C1CCC1c3ccccc3CCN21 (centres undefined) | > 100 µM | > 100 µM | > 100 µM | > 100 µM | > 100 µM | > 100 µM | > 100 µM |  | > 100 µM |  |  |  |  |  | > 100 µM |  |  |  |  | 
OCCC#Cc1ccccc1C#Cc1ccccc1 | > 100 µM | 31.3 µM | 50.7 µM | 25.2 µM | 50.7 µM |  | 39.4 µM | 41.8 µM | > 100 µM | 25.9 µM | 16.1 µM | 16.9 µM | 21.5 µM |  |  |  | 12.4 µM | 17.3 µM | 12600 nM | 32100 nM
COc1ccc(C(=O)Nc2ccccc2)cc1[N+](=O)[O-] | > 100 µM | > 100 µM |  | > 100 µM | > 100 µM | > 100 µM | > 100 µM | > 100 µM | > 100 µM |  |  |  |  |  |  |  |  |  |  | 
COc1cc(C2c3cc4c(cc3[C@@H](OCCN)[C@H]3COC(=O)C23)OCO4)cc(OC)c1O (some centres undefined) | 0.0409 µM | 0.437 µM | 3.6 µM | 1.52 µM | > 100 µM | 3.06 µM | 1.48 µM |  | 0.596 µM |  |  |  |  |  | 0.0693 µM |  |  |  |  | 
Fc1cccc(C=NC23CC4CC(CC(C4)C2)C3)c1 | > 100 µM | > 100 µM | > 100 µM | > 100 µM | > 100 µM | > 100 µM | > 100 µM | > 100 µM | > 100 µM |  |  |  |  |  |  |  |  |  |  | 
NC(=NCc1ccccc1)N/N=C\c1ccnc2ccccc12 | 76.3 µM | 29.9 µM | 32.7 µM |  | 31 µM | 27.2 µM | 29.7 µM | 4.14 µM |  |  |  |  |  |  | 4.98 µM |  |  |  |  | 
COc1cc2nc(-c3ccc(Cl)cc3)cc(OCCCN3CCC(O)CC3)c2cc1OC | 10.4 µM | 14.9 µM | 15.6 µM | 5.24 µM | 14 µM | 28.3 µM | 21.8 µM |  | 5.77 µM | 2.65 µM | 3.31 µM | 1.16 µM | 0.955 µM | 0.373 µM | 3.42 µM | 3.24 µM |  | 3.17 µM | 416 nM | 2190 nM
N/C(=N\N=C=C1C(=O)Nc2ccc(F)cc21)NO | > 100 µM | > 100 µM |  | > 100 µM | > 100 µM | > 100 µM | > 100 µM |  | > 100 µM |  |  |  |  |  | > 100 µM |  |  |  |  | 
C/C=C(\C)C(=O)O[C@@H]1C=CC(=O)O[C@H]1COC(=O)[C@H](C)O | 17 µM | 21.2 µM | 31.5 µM | 42.9 µM | 28.6 µM | 27.6 µM | 88.6 µM | 44.2 µM | 20.7 µM | 0.733 µM | 9.2 µM | 15.3 µM | 12.7 µM |  |  | 14 µM | 18.8 µM | 25.2 µM | 27000 nM | 4960 nM
CC1=C(C(=O)Nc2cc(F)c(F)cc2F)C(c2cccc([N+](=O)[O-])c2)C(C(=O)Nc2ccccc2C(F)(F)F)=C(C)N1 (centres undefined) | 55.1 µM | 40.3 µM | 62.1 µM | 49.6 µM | 43.6 µM | 41.9 µM | 88.9 µM | 37.4 µM | 34.7 µM |  |  |  |  |  |  |  |  |  |  | 
CCOC(=O)c1c(-c2ccccc2)[nH]c2ccccc2c1=O |  | > 100 µM | > 100 µM | > 100 µM | > 100 µM |  | > 100 µM | > 100 µM |  |  |  |  |  |  | > 100 µM |  |  |  |  | 
C=C(CNCCc1ccc(O)cc1)[C@@H]1CC[C@]2(CO)CC[C@]3(C)[C@H](CC[C@@H]4[C@@]5(C)CCC(NCCO)C(C)(C)[C@@H]5CC[C@]43C)[C@@H]12 (some centres undefined) | 1.92 µM | 2.58 µM | 3.31 µM | 3.29 µM | 3.29 µM | 3.51 µM | 3.52 µM | 4 µM | 3.56 µM | 0.433 µM | 1.25 µM | 1.67 µM | 1.75 µM |  |  | 1.73 µM | 1.43 µM | 1.85 µM | 1650 nM | 1810 nM
c1ccc(CNc2nc(Nc3ccc(-c4nc5ccccc5[nH]4)cc3)c3cn[nH]c3n2)cc1 | > 100 µM | 3.73 µM | 6.86 µM | 5.47 µM | 5.76 µM | 3.3 µM | 17.8 µM | 5.51 µM | 5.68 µM | 3.62 µM | 1.77 µM | 2.52 µM | 2.18 µM |  |  | 1.61 µM | 2.15 µM | 3.97 µM | 2130 nM | 2240 nM
COc1ccc(Nc2nc3c(N)cc(C(F)(F)F)cc3nc2-c2ccccc2)cc1 | > 100 µM | > 100 µM | > 100 µM | > 100 µM | > 100 µM | > 100 µM | > 100 µM |  | > 100 µM |  |  |  |  |  | > 100 µM |  |  |  |  | 
